Data: patent US7217729B2, “Substituted indoles, process for the production thereof and use thereof for combatting pain” (Grunenthal GmbH, priority 2001, dated 2007)

The compounds below were run on Male NMRI mice (assay: phenylquinone-induced writhing in mice (analgesic testing by writhing test)). Conditions: 10 mg/kg i.v., phenylquinone i.p. 10 minutes after compound, writhing counted 5–20 minutes after phenylquinone.
Type: in vivo
Procedure: The investigation into the analgesic efficacy of the compounds according to the invention was performed by phenylquinone-induced writhing in mice, modified after I. C. Hendershot, J. Forsaith, J. Pharmacol. Exp. There. 125, 237240 (1959). The corresponding literature description is hereby introduced as a reference and is deemed to be part of the disclosure.
Male NMRI mice weighing from 25–30 g were used for this purpose. Groups of 10 animals per compound dose received, 10 minutes after intravenous administration of the compounds tested, 0.3 ml/mouse of a 0.02% aqueous solution of phenylquinone (phenylbenzoquinone, Sigma, Deisenhofen; solution prepared with addition of 5% of ethanol and stored in a water bath at 45° C.) administered intraperitoneally. The animals were then placed individually in observation cages. A push button counter was used to record the number of pain-induced stretching movements (writhing reactions=straightening of the torso with stretching of the rear extremities) for 5–20 minutes after phenylquinone administration. The control was provided by animals which received only physiological common salt solution with phenylquinone.
The compounds according to the invention were tested at the standard dosage of 10 mg/kg. The percentage inhibition (% inhibition) of the writhing reactions by a compound was calculated according to the following formula: […]
Analgesic Testing by Writhing Test in Mice
The in-depth investigation into the analgesic efficacy of the compounds according to the invention was performed using phenylquinone-induced writhing in mice, as described above.

Row | Compound | % inhibition of writhing reactions [%]
1 | CCOC(=O)c1[nH]c2cc(Cl)cc(Cl)c2c1CNC1CCC(O)(c2cccc(OC)c2)C(CN(C)C)C1 (stereo not shown) [Compound 2, 4,6-Dichloro-3-{[3′-(N,N-dimethylaminomethyl)-4′-hydroxy-4′-(3″-methoxyphenyl)-cyclohexylamino]-methyl}-1H-indole 2-carboxylic acid ethyl ester] | 97
2 | CCOC(=O)c1c(CNC2CCC(O)(c3cccc(OC)c3)C(CN(C)C)C2)c2c(Cl)cc(Cl)cc2n1C(=O)OC(C)(C)C (stereo not shown) [Compound 4] | 100
3 | COc1cccc(C2(O)CCC(NCc3c(C(=O)O)[nH]c4cc(Cl)cc(Cl)c34)CC2CN(C)C)c1 (stereo not shown) [Compound 3, 4,6-Dichloro-3-{[3′-(N,N-dimethylaminomethyl)-4′-hydroxy-4′-(3″-methoxyphenyl)-cyclohexylamino]-methyl}-1H-indole 2-carboxylic acid] | 72
4 | 5-Chloro-3-{[3′-(N,N-dimethylaminomethyl)-4′-hydroxy-4′-(3″-methoxyphenyl)-cyclohexylamino]-methyl}-1H-indole 2-carboxylic acid ester [Compound 1] | 48
